Results reported in patent US20230140298A1, “TOPICAL COMPOSITION COMPRISING RETINOL AND PDRN AND USE OF SAME” (DR. J SKINCLINIC, INC., priority 2021, published 2023).

Legend:
Assay type in all cases: cell-based, human
MCP-1 = test: Retinol-induced MCP-1 release in HaCaT cells (ELISA); conditions: 10 μM all-trans retinol, 48 hours
Protocol: (§1) Referring to FIG. 1, immortalized human keratinocytes HaCaT cells were cultured in 96-well plates and treated with 10 μM of all-trans retinol (Sigma-Aldrich, St. Louis, Mo.) and c-PDRN® obtained from (PharmaResearch, Seongnam-si, Gyeonggi-do, Korea) at the indicated concentrations. […] The levels of secreted cytokine were normalized against a standard dose-response curve. c-PDRN is a hydrolyzed DNA fragment mixture extracted from the testes of adult salmon (Oncorhynchus keta, Salmonidae) The inhibitory effects of c-PDRN were evaluated on retinol-induced secretion of MCP-1 or IL-8 in cultured human keratinocytes, HaCaT cells by enzyme-linked immunosorbent assay (ELISA) to study IL-8, MCP-1 signaling pathway. The cultured HaCaT cells were treated with 10 μM all-trans retinol prior to c-PDRN treatment at the indicated concentrations. After incubation for 48 hours, the levels of secreted IL-8 or MCP-1 were measured and normalized against a standard IL-8 or MCP-1 dose-response curve. Data were shown as the means of three individual experiments with five wells per group. All-trans retinol induced increases in IL-8 and MCP-1 secretion by 8-fold and 1.4-fold, respectively. Efficacy range was c-PDRN 10 ppm ˜100 ppm or 0.001%-0.01%.

p38 = test: Expression and phosphorylation of p38 in HaCaT cells (Western blot); conditions: 10 μM all-trans retinol, 48 hours, FIG. 3
Protocol: Referring to FIG. 1, altered signaling pathways in the retinol-treated HaCaT cells were investigated. The HaCaT cells were harvested 48 hours after treatment of retinol and c-PDRN at the indicated concentrations, and expression and phosphorylation levels of inflammation-related signaling mediator, p38 were determined using Western blot. Antibodies against p38 or phosphorylated p38 (p-p38) were purchased from Cell Signaling Technology (Danvers, Mass.). The expression and phosphorylation levels of inflammation-related signaling mediator, p38 were evaluated after treatment with 10 μM all-trans retinol and c-PDRN at the indicated concentrations using Western blot to study p38 signaling pathway.

IL-8 = test: Retinol-induced IL-8 release in HaCaT cells (ELISA); conditions: 10 μM all-trans retinol, 48 hours
Protocol: as §1

CC1=C(/C=C/C(C)=C/C=C/C(C)=C/CO)C(C)(C)CCC1 [All-trans retinol, all-trans retinol]
increase in MCP-1 secretion (MCP-1): 1.4 fold | phosphorylation of p38 protein induced (p38): 1.6 fold | increase in IL-8 secretion (IL-8): 8 fold
